Assay results from patent publication US10478485B2, “Methods and compositions to prevent or treat bacterial infections” (priority 2015, dated 2019).
≈ marks a conversion by molar mass, not a printed value.

Experiments:
[1] = system: Acinetobacter baumannii; assay: SIgA breakdown / secretory component liberation by Acinetobacter baumannii (Western blot); type: cell-based; settings: for inhibition of SIgA reduction and SC liberation: 2 hours after incubation
Protocol: Acinetobacter baumannii was incubated with 50 μg/mL SIgA to examine breakdown of the immunoglobulin. Breakdown of SIgA by A. baumannii was observed by liberation of secretory component from dimeric IgA. Goat anti-human secretory component (free and bound) antibody was used to monitor this occurrence though Western blot. A mixture of A. baumannii strain Ci79 was prepared in three concentrations −10^7, 10^6, and 10^5 CFU/mL—to determine whether SIgA breakdown was dose dependent with respect to bacterial concentration FIG. 1A. […] Next, two competitive inhibitors of reductase enzymes targeting the thioredoxin fold (-C-X-X-C-) motif typically found in thiol-reductase enzymes (thioredoxin, glutathione, thioredoxin reductase, etc) were identified. The first, dithionitrobenzoic acid (Ellman's reagent) is often used as a colorimetric substrate to monitor thioredoxin activity as it produces a bright yellow color upon cleavage of the disulfide bond within the molecule. The second is PX-12. […] (Error bars represent ±SEM in all graphs; statistical differences determined by ANOVA with Dunnett correction; * significance p<0.01; ** p<0.001).

[2] = system: A. baumannii strain Ci79; assay: Bacterial adherence to mouse intestinal sections; type: cell-based, Acinetobacter baumannii
Protocol: Intestinal sections were cut down one side to expose the inner lumen of the intestine and individually placed in suspensions of A. baumannii strain Ci79 (10^7 CFU/mL). The sections were incubated in this mixture for 30 minutes, washed twice in 250 volumes of sterile PBS and soaked in 500 volumes of PBS (volume of section ˜50-100 μL) for five minutes. The remaining bound bacteria were enumerated through homogenization of each section into single cell suspensions in 10 mL sterile PBS followed by dilution plating.

[3] = system: multi-drug resistant (MDR) Acinetobacter baumannii clinical isolates; assay: Minimum inhibitory concentration (MIC) determination; type: cell-based
Protocol: PX-12 concentrations used in these experiments approximated the concentration reported “well tolerated” by mice (˜500 μg/mouse; 500 μg/mL for this experiment). […] Furthermore, this concentration was also bactericidal leading us to believe it may potentially be useful as a new antimicrobial compound for treating MDR Acinetobacter baumannii. (Bacterial concentrations used in presented studies ˜100× higher than recommended by CLSI standards)

[4] = cited from earlier work

SMILES	SIgA breakdown by Acinetobacter baumannii after addition of inhibitor [1]	inhibition of SIgA reduction and SC liberation ([1]; 1 mM)	inhibition of SIgA reduction at 24 hours ([1]; 24 hours)	bacterial adherence to intestinal sections ([2]; 18 μg/mL, sections from WT C57BL/6 mice)	reduction of bacterial attachment ([2]; WT intestinal sections as 100% control, Ci79 10^7 CFU/mL, 30 minutes) [%]	time after which inhibition is overcome by the bacteria [1]	inhibition of SIgA reduction and SC liberation ([1]; 15 μg/mL)	SIgA breakdown by Acinetobacter baumannii ([1]; 18 μg/mL, up to 2 hours following treatment)	bacterial pellet size ([3]; 500 μg/mL)	MIC ([3]; Acinetobacter baumannii) [µg/mL]	bactericidal effect ([3]; at 31.25 μg/mL)	bactericidal activity (low MIC combined with low MBC) ([3]; repeat MIC to CLSI standards, ~5×10^5 CFU/mL, 64 to 0.5 μg/mL)	concentration reported well tolerated by mice [4] [μg/mouse]
O=C(O)c1cc(SSc2ccc([N+](=O)[O-])c(C(=O)O)c2)ccc1[N+](=O)[O-] [Ellman's reagent, dithionitrobenzoic acid]	significantly reduced	completely ablated	inhibition was still evident	–	–	–	–	–	–	–	–	–	–
CCC(C)SSc1ncc[nH]1 (stereo not shown) [PX-12, 1-methylpropyl 2-imidazolyl disulfide]	–	–	–	significantly inhibits	~40	about 12 hours	completely ablated	significantly reduced	visible decrease in bacterial pellet size	31.2 (≈ 166 µM)	bactericidal	bactericidal activity	~500
